Laboratory results as given in patent US6359003B1 (Fumapharm AG, priority 1998, dated 2002).

Legend:
Ehrlich ascites tumour = settings: mice; cited from earlier work
[1] = high dosages; parenterally, transdermally and especially perorally; cited from earlier work
[2] = test system: chronic rejection (host-versus-graft reaction), rat kidney transplantation model; assay: Chronic rejection model, rat kidney transplantation; assay type: in vivo; settings: for Creatinine: serum; for Creatinine / Proteinuria: week 10 after transplantation, cyclosporine 1.5 mg/kg/day s.c. day 0-9
Description: (§1) The effect of calcium methyl fumarate for alleviating the host-versus-graft reaction both in acute and chronic rejection models was investigated on a rat kidney transplantation model.
In order to investigate the effect of calcium methyl fumarate on chronic rejection, three groups of rats received transplants (kidneys) in animal experiments. Groups 1 and 2 received a placebo (group 1) or calcium methyl fumarate (CaMF) (group 2) as active ingredient from day 28 before until day 28 after transplantation. The third group was given CaMF from day 30 to 60 after the kidney transplantation. All animals received cyclosporine from day 0 to 9 after the transplantation. The dosages administered were 1.5 mg/kg/day of cyclosporine (subcutaneously) and 33.3 mg/kg/day of CaMF (perorally).
The effect of the treatment was checked by measuring the creatinine levels in the serum, initially on day 0, 1, 3, 5, and 10 and then once a week, and by observing the urine protein levels which were measured once a week. In groups 1 and 2, n=10 animals each provided results suitable for evaluation; in group 3, n=9.

[3] = test system: acute rejection of the graft (host-versus-graft reaction), rat kidney transplantation model; assay: Acute rejection model, rat kidney transplantation; assay type: in vivo; settings: 33.3 mg/kg/day, day -28 to +28
Method: as §1
In order to investigate the influence of calcium methyl fumarate on the acute rejection of the graft, animal experiments were carried out (on rats). For this purpose, two groups of rats were treated with calcium methyl fumarate (CaMF; dosage: 33.3 mg/kg/day) or a placebo for a total period of 56 days [28 days before the kidney transplantation (−28) to 28 days after transplantation (+28)]. The number of animals with results fit for evaluation were n=9 in the placebo group and n=12 in the verum group. After that, the survival time of the animals in days after the transplantation was evaluated.

[4] = Group 2: 33.3 mg/kg/day perorally day -28 to +28, n=10
[5] = Group 3: 33.3 mg/kg/day perorally day +30 to +60, n=9

For `O=C(O)/C=C/C(=O)O` [Fumaric acid], the “Growth of the Ehrlich ascites tumour” value (Ehrlich ascites tumour) is listed as “inhibits the growth”.
For `O=C(O)/C(O)=C(\O)C(=O)O` [dihydroxyl fumaric acid], the “Side effects and toxicity” value [1] is given as “unacceptably severe side effects and high toxicity”.
For `NC(=O)/C=C/C(N)=O` [fumaramide], the “Side effects and toxicity” value [1] is given as “unacceptably severe side effects and high toxicity”.
In the case of `N#C/C=C/C#N` [fumaronitrile], the “Side effects and toxicity” value [1] is listed as “unacceptably severe side effects and high toxicity”.
For calcium methyl fumarate [CaMF], the “Damage to the kidneys (in words)” value ([2]; 10 weeks of follow-up, versus placebo) was “significant inhibition of damage to the kidneys”, the Creatinine [2, 4] was 55.7 ± 9.6 µmol/L and the Creatinine [2, 5] was 88.0 ± 42.4 µmol/L. For the same molecule, the Proteinuria [2, 4] was 31.8 ± 18.4 mg/24 hrs, the Proteinuria [2, 5] was 52.5 ± 31.6 mg/24 hrs and the “Average survival time in days versus placebo (in words)” value [3] was “significant increase”. The “Number of surviving animals” value ([3]; >100 days after transplantation, n=12) was 4, the “Average survival time” value ([3]; after kidney transplantation, n=12) was over 42.3 ± 41.0 days and the “Number of surviving animals” value ([3]; day 6 after transplantation, n=12) was 12. For the same molecule, the “Number of surviving animals” value ([3]; day 7 after transplantation, n=12) was 12, the “Number of surviving animals” value ([3]; day 8 after transplantation, n=12) was 12 and the “Number of surviving animals” value ([3]; day 9 after transplantation, n=12) was 11. For the same molecule, the “Number of surviving animals” value ([3]; day 10 after transplantation, n=12) was 10, the “Number of surviving animals” value ([3]; day 12 after transplantation, n=12) was 9 and the “Number of surviving animals” value ([3]; day 13 after transplantation, n=12) was 8. For the same molecule, the “Number of surviving animals” value ([3]; day 14 after transplantation, n=12) was 7, the “Number of surviving animals” value ([3]; day 16 after transplantation, n=12) was 6 and the “Number of surviving animals” value ([3]; day 17 after transplantation, n=12) was 5. The “Number of surviving animals” value ([3]; day 26 after transplantation, n=12) was 5 and the “Number of surviving animals” value ([3]; day 27 after transplantation, n=12) was 4.
